Tested on: IgG antibodies
Assay: Serum IgG antibodies binding glucan
Settings: pooled serum from 10 human donors
Method: Serum from 10 unimmunized normal healthy donors was pooled
Pooled serum from 10 human donors, had high levels of IgG antibodies binding β-1,6-glucan, in contrast to low levels of IgG binding β-1,3-glucan. To test how prevalent is the anti-β-b 1,6-glucan antibodies in different donors, we collected sera from 12 individuals. The sera were used to opsonize β-1,6-glucan- or β-1,3-glucan-coated beads, and the beads were incubated with human neutrophils. Eleven of the twelve sera had the high response that the pool did, mediating efficient engulfment and ROS production (FIG. 2A, a representative serum of the high responders). One serum mediated a less efficient engulfment and ROS production (FIG. 2B, low responder).

| levels of IgG antibodies binding the glucan | Substance |
| --- | --- |
| low levels | β-1,3-glucan |
| high levels | β-1,6-glucan |
